Measurements as given in ChEMBL document CHEMBL1201861, “Genomics of Drug Sensitity in Cancer screening data, Wellcome Trust Sanger Institute”.
Structures can show the parent of a compound that is named as a salt.

Columns and labels:
Assay in all cases: cells
SW684 = type: functional, cell-based, Homo sapiens;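 also: growth inhibition of human SW684 cells, measured by a cell viability assay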
Description: SANGER: Inhibition of human SW684 cell growth in a cell viability assay.

CTV-1 = type: functional, cell-based, Homo sapiens;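 also: growth inhibition of the cell line, read out with a cell viability assay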
Description: SANGER: Inhibition of human CTV-1 cell growth in a cell viability assay.

MSTO-211H = type: functional, cell-based, Homo sapiens
Description: SANGER: Inhibition of human MSTO-211H cell growth in a cell viability assay.

NB13 = type: functional, cell-based, Homo sapiens;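 also: cell viability readout measuring growth inhibition of human NB13 cells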
Description: SANGER: Inhibition of human NB13 cell growth in a cell viability assay.

COLO-684 = type: functional, cell-based, Homo sapiens
Description: SANGER: Inhibition of human COLO-684 cell growth in a cell viability assay.

MHH-PREB-1 = type: functional, cell-based, Homo sapiens;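 also: cell viability assay measuring inhibition of proliferation of human MHH-PREB-1 cells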
Description: SANGER: Inhibition of human MHH-PREB-1 cell growth in a cell viability assay.

TE-8 = type: functional, cell-based, Homo sapiens;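 also: growth inhibition of TE-8 cells, measured with a cell viability readout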
Description: SANGER: Inhibition of human TE-8 cell growth in a cell viability assay.

SW982 = type: functional, cell-based, Homo sapiens;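 also: growth inhibition of SW982 cells, read out with a cell viability assay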
Description: SANGER: Inhibition of human SW982 cell growth in a cell viability assay.

A253 cell line = type: functional, cell-based, Homo sapiens;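 also: growth inhibition of A253 cells, read out with a cell viability assay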
Description: SANGER: Inhibition of human A253 cell growth in a cell viability assay.

NCI-H1155 = type: functional, cell-based, Homo sapiens;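 also: cell growth inhibition measured by a viability assay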
Description: SANGER: Inhibition of human NCI-H1155 cell growth in a cell viability assay.

Ramos-2G6-4C10 = type: functional, cell-based, Homo sapiens;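 also: growth inhibition of the cell line, measured by a cell viability read-out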
Description: SANGER: Inhibition of human Ramos-2G6-4C10 cell growth in a cell viability assay.

SNU1 = type: functional, cell-based, Homo sapiens;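 also: growth inhibition of human NCI-SNU-1 cells, measured with a cell viability assay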
Description: SANGER: Inhibition of human NCI-SNU-1 cell growth in a cell viability assay.

DJM-1 = type: functional, cell-based, Homo sapiens;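 also: growth inhibition of human DJM-1 cells, read out by a cell viability assay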
Description: SANGER: Inhibition of human DJM-1 cell growth in a cell viability assay.

U-87 MG = type: functional, cell-based, Homo sapiens, U-87MG ATCC;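 also: growth inhibition of the cells measured with a viability assay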
Description: SANGER: Inhibition of human U-87-MG cell growth in a cell viability assay.

ATN-1 = type: functional, cell-based, Homo sapiens;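 also: growth inhibition of human ATN-1 cells, read out with a cell viability assay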
Description: SANGER: Inhibition of human ATN-1 cell growth in a cell viability assay.

HCC1187 = type: functional, cell-based, Homo sapiens;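 also: growth inhibition of HCC1187 cells, read out with a cell viability assay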
Description: SANGER: Inhibition of human HCC1187 cell growth in a cell viability assay.

LAN-6 = type: functional, cell-based, Homo sapiens;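 also: growth inhibition of LAN-6 cells, determined with a cell viability assay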
Description: SANGER: Inhibition of human LAN-6 cell growth in a cell viability assay.

GCIY = type: functional, cell-based, Homo sapiens;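 also: growth inhibition of the human GCIY cell line, read out by a cell viability assay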
Description: SANGER: Inhibition of human GCIY cell growth in a cell viability assay.

SNU-C2B = type: functional, cell-based, Homo sapiens;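 also: cell viability readout used to measure compound-driven suppression of SNU-C2B cell proliferation, IC50 marking half-maximal growth inhibition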
Description: SANGER: Inhibition of human SNU-C2B cell growth in a cell viability assay.

NCI-H69 = type: functional, cell-based, Homo sapiens;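 also: growth inhibition of the cell line, read out with a cell viability assay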
Description: SANGER: Inhibition of human NCI-H69 cell growth in a cell viability assay.

EC-GI-10 = type: functional, cell-based, Homo sapiens
Description: SANGER: Inhibition of human EC-GI-10 cell growth in a cell viability assay.

NH-12 = type: functional, cell-based, Homo sapiens;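 also: growth inhibition of NH-12 cells, read out with a cell viability assay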
Description: SANGER: Inhibition of human NH-12 cell growth in a cell viability assay.

TE-9 = type: functional, cell-based, Homo sapiens;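 also: cell growth inhibition, measured with a cell viability readout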
Description: SANGER: Inhibition of human TE-9 cell growth in a cell viability assay.

MN-60 = type: functional, cell-based, Homo sapiens;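 also: growth inhibition of the MN-60 cell line, determined with a cell viability assay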
Description: SANGER: Inhibition of human MN-60 cell growth in a cell viability assay.

SCC-15 = type: functional, cell-based, Homo sapiens;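 also: growth inhibition of SCC-15 cells, read out with a cell viability assay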
Description: SANGER: Inhibition of human SCC-15 cell growth in a cell viability assay.

EW-16 = type: functional, cell-based, Homo sapiens;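 also: growth inhibition of human EW-16 cells, read out as cell viability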
Description: SANGER: Inhibition of human EW-16 cell growth in a cell viability assay.

SNU-5 = type: functional, cell-based, Homo sapiens;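 also: cell viability readout used to measure growth inhibition in human NCI-SNU-5 cells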
Description: SANGER: Inhibition of human NCI-SNU-5 cell growth in a cell viability assay.

PSN1 = type: functional, cell-based, Homo sapiens;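 also: suppression of growth of human PSN1 cells, read out by a cell viability assay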
Description: SANGER: Inhibition of human PSN1 cell growth in a cell viability assay.

KARPAS-299 = type: functional, cell-based, Homo sapiens
Description: SANGER: Inhibition of human KARPAS-299 cell growth in a cell viability assay.

NCI-H1304 = type: functional, cell-based, Homo sapiens;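 also: growth inhibition of the cancer cell line, measured in a cell viability assay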
Description: SANGER: Inhibition of human NCI-H1304 cell growth in a cell viability assay.

SK-N-FI = type: functional, cell-based, Homo sapiens;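 also: cell viability assay measuring growth inhibition of human SK-N-FI cells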
Description: SANGER: Inhibition of human SK-N-FI cell growth in a cell viability assay.

SBC-1 = type: functional, cell-based, Homo sapiens;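 also: cell viability assay measuring growth inhibition of the SBC-1 cell line, IC50 being the concentration that halves growth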
Description: SANGER: Inhibition of human SBC-1 cell growth in a cell viability assay.

IA-LM = type: functional, cell-based, Homo sapiens;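 also: cell viability assay measuring growth inhibition of human IA-LM cells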
Description: SANGER: Inhibition of human IA-LM cell growth in a cell viability assay.

NCI-H209 = type: functional, cell-based, Homo sapiens;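 also: growth inhibition of human NCI-H209 cells, measured by a cell viability assay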
Description: SANGER: Inhibition of human NCI-H209 cell growth in a cell viability assay.

697 = type: functional, cell-based, Homo sapiens
Description: SANGER: Inhibition of human 697 cell growth in a cell viability assay.

CW-2 = type: functional, cell-based, Homo sapiens;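 also: growth inhibition of CW-2 cells, read out by a cell viability assay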
Description: SANGER: Inhibition of human CW-2 cell growth in a cell viability assay.

NCI-H2126 = type: functional, cell-based, Homo sapiens;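 also: growth inhibition of the cancer cell line, determined with a cell viability readout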
Description: SANGER: Inhibition of human NCI-H2126 cell growth in a cell viability assay.

ES4 = type: functional, cell-based, Homo sapiens;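 also: growth inhibition of human ES4 cells, read out by a cell viability assay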
Description: SANGER: Inhibition of human ES4 cell growth in a cell viability assay.

SW 954 = type: functional, cell-based, Homo sapiens;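 also: growth inhibition of SW954 human cancer cells, read out as cell viability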
Description: SANGER: Inhibition of human SW954 cell growth in a cell viability assay.

BT-474 = type: functional, cell-based, Homo sapiens
Description: SANGER: Inhibition of human BT-474 cell growth in a cell viability assay.

HEL = type: functional, cell-based, Homo sapiens;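 also: growth inhibition of HEL cells, read out with a cell viability assay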
Description: SANGER: Inhibition of human HEL cell growth in a cell viability assay.

P30-OHK = type: functional, cell-based, Homo sapiens;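 also: growth inhibition of the P30-OHK cell line, read out with a cell viability assay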
Description: SANGER: Inhibition of human P30-OHK cell growth in a cell viability assay.

NB5 = type: functional, cell-based, Homo sapiens;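 also: growth inhibition of NB5 cells, read out as cell viability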
Description: SANGER: Inhibition of human NB5 cell growth in a cell viability assay.

SK-NEP-1 = type: functional, cell-based, Homo sapiens;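 also: growth inhibition of human SK-NEP-1 cells, read out by a cell viability assay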
Description: SANGER: Inhibition of human SK-NEP-1 cell growth in a cell viability assay.

LB2518-MEL = type: functional, cell-based, Homo sapiens;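 also: growth inhibition of human LB2518-MEL cells, measured with a cell viability assay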
Description: SANGER: Inhibition of human LB2518-MEL cell growth in a cell viability assay.

AM-38 = type: functional, cell-based, Homo sapiens;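 also: growth inhibition of AM-38 cells of human origin, read out by a cell viability assay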
Description: SANGER: Inhibition of human AM-38 cell growth in a cell viability assay.

D283 Med = type: functional, cell-based, Homo sapiens
Description: SANGER: Inhibition of human D-283MED cell growth in a cell viability assay.

GT3TKB = type: functional, cell-based, Homo sapiens;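 also: growth inhibition of the cell line, read out with a cell viability assay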
Description: SANGER: Inhibition of human GT3TKB cell growth in a cell viability assay.

KS-1 = type: functional, cell-based, Homo sapiens;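 also: growth inhibition of KS-1 cells, read out with a cell viability assay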
Description: SANGER: Inhibition of human KS-1 cell growth in a cell viability assay.

In the case of `COC1=CC(c2cc3ccccc3[nH]2)=N/C1=C\c1[nH]c(C)cc1C` [OBATOCLAX MESYLATE], the IC50 (SW684; Homo sapiens, SW684) is reported as > 16 µM, the IC50 (CTV-1; Homo sapiens, CTV-1) is reported as 0.0752 µM and the IC50 (MSTO-211H; Homo sapiens, MSTO-211H) is reported as 4.84 µM. For the same compound, the IC50 (NB13; Homo sapiens, NB13) was 0.0642 µM, the IC50 (COLO-684; Homo sapiens, COLO-684) was 0.656 µM and the IC50 (MHH-PREB-1; Homo sapiens, MHH-PREB-1) was < 0.0625 µM. For the same compound, the IC50 (TE-8; Homo sapiens, TE-8) was 0.0989 µM, the IC50 (SW982; Homo sapiens, SW982) was 0.445 µM and the IC50 (A253 cell line; Homo sapiens, A253) was 0.575 µM. The IC50 (NCI-H1155; Homo sapiens, NCI-H1155) was 6.96 µM, the IC50 (Ramos-2G6-4C10; Homo sapiens, Ramos-2G6-4C10) was 0.129 µM and the IC50 (SNU1; Homo sapiens, SNU1) was 0.121 µM. For the same compound, the IC50 (DJM-1; Homo sapiens, DJM-1) was 0.175 µM, the IC50 (U-87 MG; Homo sapiens, U-87 MG) was 2.29 µM and the IC50 (ATN-1; Homo sapiens, ATN-1) was 0.167 µM. For the same compound, the IC50 (HCC1187; Homo sapiens, HCC1187) was 1.71 µM, the IC50 (LAN-6; Homo sapiens, LAN-6) was 1.9 µM and the IC50 (GCIY; Homo sapiens, GCIY) was 0.31 µM. The IC50 (SNU-C2B; Homo sapiens, SNU-C2B) was 0.868 µM, the IC50 (NCI-H69; Homo sapiens, NCI-H69) was 4.7 µM and the IC50 (EC-GI-10; Homo sapiens, EC-GI-10) was > 16 µM. It also gave an IC50 (NH-12; Homo sapiens, NH-12) of 0.54 µM, an IC50 (TE-9; Homo sapiens, TE-9) of 0.233 µM and an IC50 (MN-60; Homo sapiens, MN-60) of 0.099 µM. For the same compound, the IC50 (SCC-15; Homo sapiens, SCC-15) was 0.049 µM, the IC50 (EW-16; Homo sapiens, EW-16) was 0.0391 µM and the IC50 (SNU-5; Homo sapiens, SNU-5) was 0.856 µM. The IC50 (PSN1; Homo sapiens, PSN1) was < 0.0625 µM, the IC50 (KARPAS-299; Homo sapiens, KARPAS-299) was > 16 µM and the IC50 (NCI-H1304; Homo sapiens, NCI-H1304) was 1.64 µM. It also gave an IC50 (SK-N-FI; Homo sapiens, SK-N-FI) of 14.9 µM, an IC50 (SBC-1; Homo sapiens, SBC-1) of 3.09 µM and an IC50 (IA-LM; Homo sapiens, IA-LM) of 0.0605 µM. For the same compound, the IC50 (NCI-H209; Homo sapiens, NCI-H209) was 3.68 µM, the IC50 (697; Homo sapiens) was 0.0532 µM and the IC50 (CW-2; Homo sapiens, CW-2) was > 16 µM. The IC50 (NCI-H2126; Homo sapiens, NCI-H2126) was 2.23 µM, the IC50 (ES4; Homo sapiens, ES4) was 0.103 µM and the IC50 (SW 954; Homo sapiens, SW 954) was 0.403 µM. For the same compound, the IC50 (BT-474; Homo sapiens, BT-474) was 0.175 µM, the IC50 (HEL; Homo sapiens, HEL) was 0.154 µM and the IC50 (P30-OHK; Homo sapiens, P30-OHK) was 0.24 µM. For the same compound, the IC50 (NB5; Homo sapiens, NB5) was 1.41 µM, the IC50 (SK-NEP-1; Homo sapiens, SK-NEP-1) was 1.82 µM and the IC50 (LB2518-MEL; Homo sapiens, LB2518-MEL) was 0.234 µM. The IC50 (AM-38; Homo sapiens, AM-38) was 0.192 µM, the IC50 (D283 Med; Homo sapiens, D283 Med) was 1.12 µM and the IC50 (GT3TKB; Homo sapiens, GT3TKB) was 0.163 µM. The IC50 (KS-1; Homo sapiens, KS-1) was 0.305 µM.

BLEOMYCIN was tested, and the IC50 (SW684; sw684) was 3870 µM, the IC50 (CTV-1; ctv-1) was 4.92 µM and the IC50 (MSTO-211H; msto-211h) was 149 µM. For the same compound, the IC50 (NB13; nb13) was 36.7 µM, the IC50 (COLO-684; colo-684) was 237 µM and the IC50 (MHH-PREB-1; mhh-preb-1) was 836 µM. The IC50 (TE-8; te-8) was 0.377 µM, the IC50 (SW982; sw982) was 0.417 µM and the IC50 (A253 cell line; a253) was 2.86 µM. It also gave an IC50 (NCI-H1155; nci-h1155) of 73.2 µM, an IC50 (Ramos-2G6-4C10; ramos-2g6-4c10) of 9.88 µM and an IC50 (SNU1; snu1) of 2.84 µM. For the same compound, the IC50 (DJM-1; djm-1) was 1.13 µM, the IC50 (U-87 MG; u-87mg atcc) was 11.1 µM and the IC50 (ATN-1; atn-1) was 18.9 µM. It also gave an IC50 (HCC1187; hcc1187) of 32.9 µM, an IC50 (LAN-6; lan-6) of 14.6 µM and an IC50 (GCIY; gciy) of 12.8 µM. The IC50 (SNU-C2B; snu-c2b) was 2.32 µM, the IC50 (NCI-H69; nci-h69) was 104 µM and the IC50 (EC-GI-10; ec-gi-10) was 305 µM. For the same compound, the IC50 (NH-12; nh-12) was 2.21 µM, the IC50 (TE-9; te-9) was 34 µM and the IC50 (MN-60; mn-60) was 4.05 µM. It also gave an IC50 (SCC-15; scc-15) of 27.6 µM, an IC50 (EW-16; ew-16) of 0.00685 µM and an IC50 (SNU-5; snu-5) of 0.643 µM. It also gave an IC50 (PSN1; psn1) of 0.139 µM, an IC50 (KARPAS-299; karpas-299) of 27.2 µM and an IC50 (NCI-H1304; nci-h1304) of 4.1 µM. For the same compound, the IC50 (SK-N-FI; sk-n-fi) was 2100 µM, the IC50 (SBC-1; sbc-1) was 370 µM and the IC50 (IA-LM; ia-lm) was 3.4 µM. For the same compound, the IC50 (NCI-H209; nci-h209) was 34.3 µM, the IC50 697 was 1.58 µM and the IC50 (CW-2; cw-2) was 564 µM. For the same compound, the IC50 (NCI-H2126; nci-h2126) was 358 µM, the IC50 (ES4; es4) was 0.0383 µM and the IC50 (SW 954; sw 954) was 0.00957 µM. The IC50 (BT-474; bt-474) was 2080 µM, the IC50 (HEL; hel) was 10.8 µM and the IC50 (P30-OHK; p30-ohk) was 7.1 µM. For the same compound, the IC50 (NB5; nb5) was 6.72 µM, the IC50 (SK-NEP-1; sk-nep-1) was 31.9 µM and the IC50 (LB2518-MEL; lb2518-mel) was 0.182 µM. The IC50 (AM-38; am-38) was 4.94 µM, the IC50 (D283 Med; d283 med) was 3.81 µM and the IC50 (GT3TKB; gt3tkb) was 0.00685 µM. The IC50 (KS-1; ks-1) was 0.0108 µM.

With `CC(C)c1ccccc1Cc1cc(C(=O)Nc2ccc(S(=O)(=O)c3ccccc3C(C)(C)C)cc2)c(O)c(O)c1O` the IC50 (SW684; Homo sapiens, SW684) was 8.83 µM, the IC50 (MSTO-211H; Homo sapiens, MSTO-211H) was 0.789 µM and the IC50 (NB13; Homo sapiens, NB13) was 0.158 µM. It also gave an IC50 (TE-8; Homo sapiens, TE-8) of 0.129 µM, an IC50 (SW982; Homo sapiens, SW982) of 0.111 µM and an IC50 (A253 cell line; Homo sapiens, A253) of 0.57 µM. For the same compound, the IC50 (DJM-1; Homo sapiens, DJM-1) was 0.52 µM, the IC50 (U-87 MG; Homo sapiens, U-87 MG) was 0.0822 µM and the IC50 (HCC1187; Homo sapiens, HCC1187) was 0.425 µM. The IC50 (LAN-6; Homo sapiens, LAN-6) was 0.16 µM, the IC50 (GCIY; Homo sapiens, GCIY) was 0.0208 µM and the IC50 (SNU-C2B; Homo sapiens, SNU-C2B) was 0.257 µM. For the same compound, the IC50 (EC-GI-10; Homo sapiens, EC-GI-10) was 0.47 µM, the IC50 (NH-12; Homo sapiens, NH-12) was 0.172 µM and the IC50 (TE-9; Homo sapiens, TE-9) was 0.225 µM. For the same compound, the IC50 (SCC-15; Homo sapiens, SCC-15) was 0.223 µM, the IC50 (EW-16; Homo sapiens, EW-16) was 0.185 µM and the IC50 (PSN1; Homo sapiens, PSN1) was 0.167 µM. For the same compound, the IC50 (SK-N-FI; Homo sapiens, SK-N-FI) was 0.328 µM, the IC50 (IA-LM; Homo sapiens, IA-LM) was 1.56 µM and the IC50 (CW-2; Homo sapiens, CW-2) was 0.446 µM. The IC50 (NCI-H2126; Homo sapiens, NCI-H2126) was 0.782 µM, the IC50 (ES4; Homo sapiens, ES4) was 0.516 µM and the IC50 (SW 954; Homo sapiens, SW 954) was 0.467 µM. It also gave an IC50 (BT-474; Homo sapiens, BT-474) of 3.87 µM, an IC50 (HEL; Homo sapiens, HEL) of 0.522 µM and an IC50 (NB5; Homo sapiens, NB5) of 0.423 µM. It also gave an IC50 (LB2518-MEL; Homo sapiens, LB2518-MEL) of 0.178 µM, an IC50 (AM-38; Homo sapiens, AM-38) of 0.841 µM and an IC50 (D283 Med; Homo sapiens, D283 Med) of 0.284 µM. The IC50 (GT3TKB; Homo sapiens, GT3TKB) was 0.301 µM and the IC50 (KS-1; Homo sapiens, KS-1) was 0.322 µM.
